Data from ChEMBL document CHEMBL1201862, “PubChem BioAssay data set” (2004).
Active and inactive are the calls of the source.

What was measured:
[1] = cytotoxicity in HEK-293T cells, dose response, cytotoxicity control for TCR NF-kB inhibitor project, luminescence, T-cell screen hits (AID 489026); format: functional, cell-based;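 also: cells exposed to compound about 14 hours before the viability readout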
[2] = cells; format: functional, cell-based
[3] = cells; format: functional, cell-based; remark: listed apart in the source
[4] = biological target: T1, Corticotropin-releasing factor receptor 2/Corticotropin-releasing factor-binding protein (Homo sapiens, UniProt P24387+Q13324); assay: activators of CRF receptor 2 with binding protein – uHTS hits, confirmation (AID 602473); format: functional; conditions: read-out: EC50_Mean
T1 sequence (Q13324 whole entry): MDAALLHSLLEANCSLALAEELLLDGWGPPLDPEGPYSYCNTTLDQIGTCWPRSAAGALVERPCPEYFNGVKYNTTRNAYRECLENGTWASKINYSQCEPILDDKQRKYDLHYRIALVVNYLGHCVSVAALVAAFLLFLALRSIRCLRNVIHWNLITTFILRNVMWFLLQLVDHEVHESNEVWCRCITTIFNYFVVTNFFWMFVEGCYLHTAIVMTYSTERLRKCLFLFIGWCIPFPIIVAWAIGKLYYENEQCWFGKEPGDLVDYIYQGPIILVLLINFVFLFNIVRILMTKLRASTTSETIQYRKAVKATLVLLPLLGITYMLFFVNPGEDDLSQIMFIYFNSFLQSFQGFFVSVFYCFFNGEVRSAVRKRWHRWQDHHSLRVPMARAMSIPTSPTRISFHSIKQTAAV
T1 sequence (P24387 whole entry): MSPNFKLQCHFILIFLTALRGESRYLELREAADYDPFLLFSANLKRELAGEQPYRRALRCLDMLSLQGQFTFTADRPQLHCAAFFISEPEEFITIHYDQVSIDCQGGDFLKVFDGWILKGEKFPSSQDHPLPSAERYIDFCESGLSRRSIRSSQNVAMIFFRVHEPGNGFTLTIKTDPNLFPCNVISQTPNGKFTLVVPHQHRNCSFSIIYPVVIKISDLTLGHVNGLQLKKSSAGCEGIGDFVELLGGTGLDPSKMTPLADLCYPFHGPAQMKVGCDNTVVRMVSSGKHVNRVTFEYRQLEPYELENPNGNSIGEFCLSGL

[5] = biological target: ORF 73 (Human herpesvirus 8, UniProt O40947); assay: inhibitors of C-LANA binding to LBS DNA, dose response, biochemical, fluorescence polarization, cherry-picked samples (AID 504725); parameters: species or system Human gammaherpesvirus 8;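 also: fluorescence polarization of a labeled DNA duplex reporting LANA DNA binding; potency is for inhibitors that block LANA binding to the DNA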
[6] = biological target: T2, Tyrosine-protein phosphatase non-receptor type 7 (Homo sapiens, UniProt P35236); assay: redox-dependent HePTP inhibition, mechanism study, biochemical, fluorescence (AID 2068); format: functional
T2 sequence (P35236 whole entry): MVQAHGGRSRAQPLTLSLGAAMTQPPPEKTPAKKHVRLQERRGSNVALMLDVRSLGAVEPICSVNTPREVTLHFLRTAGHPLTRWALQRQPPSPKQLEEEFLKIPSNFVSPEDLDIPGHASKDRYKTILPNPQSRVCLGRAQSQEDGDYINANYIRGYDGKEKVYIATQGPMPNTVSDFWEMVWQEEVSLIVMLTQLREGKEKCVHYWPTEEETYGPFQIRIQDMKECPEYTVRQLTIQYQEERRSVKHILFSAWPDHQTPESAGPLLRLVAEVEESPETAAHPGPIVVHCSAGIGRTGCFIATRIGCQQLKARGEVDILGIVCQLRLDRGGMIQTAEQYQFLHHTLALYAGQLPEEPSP

[7] = biological target: T3, Small ubiquitin-related modifier 1 (Homo sapiens, UniProt P63165); assay: inhibitors of SUMO1 peptide binding, dose response, biochemical, fluorescence polarization, uHTS hits (AID 624382); format: functional; conditions: read-out: IC50_Mean
[8] = biological target: T3, Small ubiquitin-related modifier 1; assay: inhibitors of SUMO1 partner interactions, dose response, biochemical, FRET (AID 624383); format: functional; conditions: read-out: IC50_Mean
[9] = biological target: T4, Dual specificity protein phosphatase 3 (Homo sapiens, UniProt P51452); assay: SAR VHR1 Fluorescent Assay for In Vitro dose response studies. [Related pubchem assays (depositor defined):AID1654, AID1661, AID1878, AID1992, AID2004, AID2070, AID2085]; format: functional
[10] = biological target: Tyrosine-protein phosphatase non-receptor type 12 (Homo sapiens, UniProt Q05209); assay: SAR Selectivity Analysis of small molecule inhibitors of PEST using pCAP in a fluorescence assay. [Related pubchem assays (depositor defined):AID1779, AID1784, AID2135]; format: functional
[11] = biological target: T2, Tyrosine-protein phosphatase non-receptor type 7; assay: HePTP (PTPN7) phosphatase inhibitor potency, SAR follow-up, biochemical, set 2 (AID 449736); format: functional
[12] = biological target: T5, Tyrosine-protein phosphatase non-receptor type 22 (Homo sapiens, UniProt Q9Y2R2); assay: LYP (PTPN22) phosphatase inhibitor potency, SAR follow-up, biochemical, pCAP fluorogenic substrate, fluorescence, set 3 (AID 449727); format: functional
T5 sequence (Q9Y2R2 whole entry): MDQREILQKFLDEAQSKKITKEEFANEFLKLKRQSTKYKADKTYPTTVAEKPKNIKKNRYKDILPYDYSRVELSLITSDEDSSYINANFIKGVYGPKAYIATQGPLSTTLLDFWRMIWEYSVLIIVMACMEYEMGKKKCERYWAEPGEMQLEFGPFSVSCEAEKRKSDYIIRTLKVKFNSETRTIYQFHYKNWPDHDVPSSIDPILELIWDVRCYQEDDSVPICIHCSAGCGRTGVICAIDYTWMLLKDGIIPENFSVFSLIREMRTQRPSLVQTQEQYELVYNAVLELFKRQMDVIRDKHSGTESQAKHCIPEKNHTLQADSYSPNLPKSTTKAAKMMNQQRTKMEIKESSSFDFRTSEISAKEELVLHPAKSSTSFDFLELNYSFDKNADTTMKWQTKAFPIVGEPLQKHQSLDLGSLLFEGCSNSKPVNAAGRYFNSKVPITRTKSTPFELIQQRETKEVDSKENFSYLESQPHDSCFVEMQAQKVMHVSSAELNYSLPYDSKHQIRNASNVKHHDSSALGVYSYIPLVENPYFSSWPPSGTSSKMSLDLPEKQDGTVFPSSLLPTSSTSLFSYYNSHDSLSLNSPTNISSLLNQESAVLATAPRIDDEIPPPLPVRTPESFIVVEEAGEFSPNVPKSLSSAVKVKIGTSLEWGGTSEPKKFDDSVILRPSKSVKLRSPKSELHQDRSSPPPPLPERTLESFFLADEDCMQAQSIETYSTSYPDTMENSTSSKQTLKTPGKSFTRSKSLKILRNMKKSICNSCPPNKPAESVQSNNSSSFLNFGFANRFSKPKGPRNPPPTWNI

[13] = biological target: T6, Low molecular weight phosphotyrosine protein phosphatase (Homo sapiens, UniProt P24666); format: functional; conditions: read-out: IC50_Mean
T6 sequence (P24666 whole entry): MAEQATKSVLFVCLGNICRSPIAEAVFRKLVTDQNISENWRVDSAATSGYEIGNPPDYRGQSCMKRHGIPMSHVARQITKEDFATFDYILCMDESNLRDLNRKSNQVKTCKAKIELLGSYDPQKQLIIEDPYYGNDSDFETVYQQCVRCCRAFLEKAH

[14] = biological target: T5, Tyrosine-protein phosphatase non-receptor type 22; assay: SAR LYP1 Fluorescent Assay using OMFP substrate for In Vitro dose response studies - Set 3. [Related pubchem assays (depositor defined):AID1779, AID1784, AID2140, AID2686]; format: functional
[15] = biological target: T5, Tyrosine-protein phosphatase non-receptor type 22; assay: LYP phosphatase inhibition for selectivity, dose response, selectivity assay for LMPTP inhibitor project, biochemical, fluorescence, LYP catalytic domain (AID 652006); format: functional; conditions: read-out: IC50_Mean
[16] = biological target: T7, Dual specificity protein phosphatase 6 (Rattus norvegicus, UniProt Q64346); format: functional;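 also: confirmatory in vitro dose-response testing of MKP-3 inhibition; recombinant His-tagged MKP-3 made in E. coli BL21 with OMFP substrate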
T7 sequence (Q64346 whole entry): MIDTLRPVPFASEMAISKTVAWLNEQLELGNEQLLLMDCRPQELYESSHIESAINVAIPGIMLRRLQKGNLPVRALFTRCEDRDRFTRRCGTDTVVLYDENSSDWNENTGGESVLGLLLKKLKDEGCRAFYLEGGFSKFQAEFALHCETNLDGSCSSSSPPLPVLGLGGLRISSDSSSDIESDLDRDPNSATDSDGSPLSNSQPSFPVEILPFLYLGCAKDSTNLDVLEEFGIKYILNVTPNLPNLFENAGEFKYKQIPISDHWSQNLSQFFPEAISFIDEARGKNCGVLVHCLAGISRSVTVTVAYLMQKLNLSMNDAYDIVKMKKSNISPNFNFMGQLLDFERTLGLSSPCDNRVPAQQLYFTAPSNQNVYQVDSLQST

[17] = biological target: T4, Dual specificity protein phosphatase 3; assay: MOA VHR1 Fluorescent secondary assay for identification of redox-state modulating compounds. [Related pubchem assays (depositor defined):AID1654, AID1661, AID1878, AID1957]
[18] = biological target: T6, Low molecular weight phosphotyrosine protein phosphatase; format: functional; conditions: read-out: IC50_Mean; remark: listed apart in the source
[19] = biological target: T4, Dual specificity protein phosphatase 3; assay: SAR VHR1 absorbance Assay for In Vitro dose response studies. [Related pubchem assays (depositor defined):AID1654, AID1661, AID1878, AID1992, AID2004]
[20] = biological target: Metabotropic glutamate receptor 4 (Rattus norvegicus, UniProt P31423); assay: Modulation of the Metabotropic Glutamate Receptor mGluR4: Rat PAM Potency. [Related pubchem assays (depositor defined):AID2437, AID2807]; format: functional
[21] = biological target: Wee1-like protein kinase (Homo sapiens, UniProt P30291); assay: G2/M cell cycle arrest in HeLa, late-stage follow-up, mechanism study for Wee1 degradation inhibitor project, FACS, panel member Wee1 Degradation (AID 2088)
[22] = biological target: G2/mitotic-specific cyclin-B1 (Homo sapiens, UniProt P14635); assay: G2/M cell cycle arrest in HeLa, late-stage follow-up, mechanism study for Wee1 degradation inhibitor project, FACS, panel member Cyclin B Degradation (AID 2088)
Chain of G2/mitotic-specific cyclin-B1 (P14635 whole entry): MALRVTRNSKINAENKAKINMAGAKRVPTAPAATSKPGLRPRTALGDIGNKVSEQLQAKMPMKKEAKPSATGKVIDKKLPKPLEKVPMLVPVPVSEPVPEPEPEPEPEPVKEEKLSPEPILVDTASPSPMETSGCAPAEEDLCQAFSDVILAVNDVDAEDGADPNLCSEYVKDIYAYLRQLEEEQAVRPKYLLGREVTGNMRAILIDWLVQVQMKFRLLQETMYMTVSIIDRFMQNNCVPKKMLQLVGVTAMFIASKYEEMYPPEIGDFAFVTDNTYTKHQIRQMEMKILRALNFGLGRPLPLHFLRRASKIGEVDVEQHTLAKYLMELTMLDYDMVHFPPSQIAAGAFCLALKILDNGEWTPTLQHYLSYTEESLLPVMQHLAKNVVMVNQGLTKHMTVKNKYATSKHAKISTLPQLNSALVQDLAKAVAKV

T4 sequence (P51452 whole entry): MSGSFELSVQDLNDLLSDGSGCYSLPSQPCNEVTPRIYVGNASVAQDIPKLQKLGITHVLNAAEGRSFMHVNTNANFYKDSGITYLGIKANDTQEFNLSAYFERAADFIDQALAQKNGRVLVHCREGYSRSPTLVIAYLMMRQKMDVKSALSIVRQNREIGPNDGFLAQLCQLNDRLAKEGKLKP
T3 sequence (P63165 whole entry): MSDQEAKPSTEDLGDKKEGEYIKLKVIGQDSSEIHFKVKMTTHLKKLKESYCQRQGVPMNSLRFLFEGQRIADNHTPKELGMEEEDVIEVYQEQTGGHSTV
Chain of Wee1-like protein kinase (P30291 whole entry): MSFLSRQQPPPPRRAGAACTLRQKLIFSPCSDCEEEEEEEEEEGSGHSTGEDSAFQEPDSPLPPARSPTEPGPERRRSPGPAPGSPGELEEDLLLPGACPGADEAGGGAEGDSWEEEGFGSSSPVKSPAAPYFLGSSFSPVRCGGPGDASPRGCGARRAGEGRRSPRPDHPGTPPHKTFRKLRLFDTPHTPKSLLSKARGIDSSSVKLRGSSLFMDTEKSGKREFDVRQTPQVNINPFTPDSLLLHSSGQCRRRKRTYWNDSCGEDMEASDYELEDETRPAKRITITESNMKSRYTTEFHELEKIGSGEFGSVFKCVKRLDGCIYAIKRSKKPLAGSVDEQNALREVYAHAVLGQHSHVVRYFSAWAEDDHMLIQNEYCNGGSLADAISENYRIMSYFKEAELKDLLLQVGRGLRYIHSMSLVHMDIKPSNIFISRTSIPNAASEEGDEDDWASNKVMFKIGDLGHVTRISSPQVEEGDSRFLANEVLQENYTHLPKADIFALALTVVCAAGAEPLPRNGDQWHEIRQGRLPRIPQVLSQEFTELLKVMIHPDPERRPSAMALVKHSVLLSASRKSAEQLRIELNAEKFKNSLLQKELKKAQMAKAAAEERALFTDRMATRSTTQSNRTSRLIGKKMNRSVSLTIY
Chain of Metabotropic glutamate receptor 4 (P31423 whole entry): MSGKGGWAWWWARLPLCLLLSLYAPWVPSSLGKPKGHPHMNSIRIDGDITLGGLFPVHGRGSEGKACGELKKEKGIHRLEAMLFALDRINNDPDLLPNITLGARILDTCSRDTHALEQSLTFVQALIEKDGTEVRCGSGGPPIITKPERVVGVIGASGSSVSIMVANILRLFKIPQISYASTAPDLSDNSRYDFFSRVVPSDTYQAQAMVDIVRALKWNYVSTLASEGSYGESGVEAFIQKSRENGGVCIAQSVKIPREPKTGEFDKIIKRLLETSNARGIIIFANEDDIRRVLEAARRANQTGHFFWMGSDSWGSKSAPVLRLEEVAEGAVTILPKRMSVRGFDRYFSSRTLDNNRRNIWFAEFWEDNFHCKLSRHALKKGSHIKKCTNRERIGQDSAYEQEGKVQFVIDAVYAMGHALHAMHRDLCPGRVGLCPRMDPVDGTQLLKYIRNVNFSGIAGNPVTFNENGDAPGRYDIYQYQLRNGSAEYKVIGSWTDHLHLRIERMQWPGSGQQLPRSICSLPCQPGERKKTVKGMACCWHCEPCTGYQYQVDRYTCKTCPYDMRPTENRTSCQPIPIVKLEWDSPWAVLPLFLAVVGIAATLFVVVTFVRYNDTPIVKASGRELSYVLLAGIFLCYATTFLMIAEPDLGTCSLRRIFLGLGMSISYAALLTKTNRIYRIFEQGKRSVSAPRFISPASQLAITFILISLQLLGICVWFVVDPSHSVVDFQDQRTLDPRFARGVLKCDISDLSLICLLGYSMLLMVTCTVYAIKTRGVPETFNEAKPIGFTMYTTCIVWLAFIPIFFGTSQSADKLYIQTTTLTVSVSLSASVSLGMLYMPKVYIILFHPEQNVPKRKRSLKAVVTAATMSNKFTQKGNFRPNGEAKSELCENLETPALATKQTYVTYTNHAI
Chain of Tyrosine-protein phosphatase non-receptor type 12 (Q05209 whole entry): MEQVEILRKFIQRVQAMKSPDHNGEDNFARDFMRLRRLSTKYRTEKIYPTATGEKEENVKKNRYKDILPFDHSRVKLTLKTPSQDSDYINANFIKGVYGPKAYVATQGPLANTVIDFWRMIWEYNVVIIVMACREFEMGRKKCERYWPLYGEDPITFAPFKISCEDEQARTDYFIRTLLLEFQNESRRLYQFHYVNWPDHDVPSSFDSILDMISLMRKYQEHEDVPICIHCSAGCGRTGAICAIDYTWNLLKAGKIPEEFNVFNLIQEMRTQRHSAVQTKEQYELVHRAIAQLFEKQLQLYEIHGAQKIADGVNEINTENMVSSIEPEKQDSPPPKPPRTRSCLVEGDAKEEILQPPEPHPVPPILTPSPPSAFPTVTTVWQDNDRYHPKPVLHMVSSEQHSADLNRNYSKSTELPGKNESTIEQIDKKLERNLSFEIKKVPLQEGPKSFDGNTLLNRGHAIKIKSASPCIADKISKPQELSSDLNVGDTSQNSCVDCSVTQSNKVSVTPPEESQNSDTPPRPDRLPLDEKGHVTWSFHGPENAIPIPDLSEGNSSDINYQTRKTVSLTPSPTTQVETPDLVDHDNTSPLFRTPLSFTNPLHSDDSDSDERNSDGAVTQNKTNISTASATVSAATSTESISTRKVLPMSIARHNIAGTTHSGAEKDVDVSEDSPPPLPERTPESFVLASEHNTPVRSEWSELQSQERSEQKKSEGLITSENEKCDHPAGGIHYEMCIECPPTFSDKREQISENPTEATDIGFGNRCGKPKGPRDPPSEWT
Chain of ORF 73 (O40947 whole entry): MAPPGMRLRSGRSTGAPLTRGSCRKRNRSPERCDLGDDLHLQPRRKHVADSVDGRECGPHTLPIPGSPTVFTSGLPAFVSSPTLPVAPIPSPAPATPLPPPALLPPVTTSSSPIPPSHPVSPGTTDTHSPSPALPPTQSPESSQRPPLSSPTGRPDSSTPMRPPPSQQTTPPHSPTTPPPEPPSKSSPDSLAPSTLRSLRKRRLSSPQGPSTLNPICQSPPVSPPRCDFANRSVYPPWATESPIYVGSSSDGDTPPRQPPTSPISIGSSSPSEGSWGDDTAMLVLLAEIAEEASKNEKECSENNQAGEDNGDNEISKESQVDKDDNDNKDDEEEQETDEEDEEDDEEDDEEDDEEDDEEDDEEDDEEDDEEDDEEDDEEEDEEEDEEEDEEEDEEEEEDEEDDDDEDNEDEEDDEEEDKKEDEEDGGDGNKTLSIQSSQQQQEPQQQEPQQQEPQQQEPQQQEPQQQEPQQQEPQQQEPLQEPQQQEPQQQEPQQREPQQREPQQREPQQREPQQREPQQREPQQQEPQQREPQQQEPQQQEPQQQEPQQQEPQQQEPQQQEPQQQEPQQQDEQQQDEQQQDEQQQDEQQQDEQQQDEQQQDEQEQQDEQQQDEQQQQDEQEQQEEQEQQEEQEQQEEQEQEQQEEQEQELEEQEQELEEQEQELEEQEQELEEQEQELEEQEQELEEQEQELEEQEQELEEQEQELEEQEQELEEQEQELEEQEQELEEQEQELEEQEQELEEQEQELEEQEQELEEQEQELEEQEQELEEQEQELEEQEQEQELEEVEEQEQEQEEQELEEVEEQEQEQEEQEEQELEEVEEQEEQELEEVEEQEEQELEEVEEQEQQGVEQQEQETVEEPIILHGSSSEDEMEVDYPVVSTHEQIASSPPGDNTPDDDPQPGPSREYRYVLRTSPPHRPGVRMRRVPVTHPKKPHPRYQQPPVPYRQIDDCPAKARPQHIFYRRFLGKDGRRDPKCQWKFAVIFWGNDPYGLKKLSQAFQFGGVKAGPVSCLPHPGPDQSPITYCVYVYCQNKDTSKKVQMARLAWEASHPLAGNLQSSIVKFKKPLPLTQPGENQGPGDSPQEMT

With `O=C(OCCN1C(=O)c2cccc3c(N4CCOCC4)ccc(c23)C1=O)c1ccc(Cl)cc1` the IC50 [1] was > 80 µM (inactive), the EC50 [2] was > 350 µM (not active) and the EC50 [3] was > 350 µM (not active). For the same compound, the EC50 [4] was 5.89 µM (active) and the AC50 [5] was 29.3 µM (active).
With `CCOC(=O)C1=C(C)N=c2sc(=Cc3ccc(OCC(=O)O)cc3)c(=O)n2C1c1ccc(SC)cc1` (configuration not stated) the IC50 [6] was 0.537 µM (active), the IC50 [7] was > 66.6 µM (inactive) and the IC50 [8] was 9.68 µM (active). The IC50 [9] was 7.7 µM (active), the IC50 [10] was 2.52 µM (active) and the IC50 [11] was 0.684 µM (active). For the same compound, the IC50 [12] was 5.14 µM (active), the IC50 [13] was 14.6 µM (active) and the IC50 [14] was 5.06 µM (active). For the same compound, the IC50 [15] was 16.2 µM (active), the IC50 [16] was 18.9 µM (active) and the IC50 [17] was 2.01 µM (active). The IC50 [18] was 52.8 µM (inactive) and the IC50 [19] was 3.14 µM (active).
For `CC1(c2ccccc2)CC(=O)N(c2ccc(NC(=O)c3ccccn3)cc2Cl)C1=O` (configuration not stated), the EC50 [20] was 0.54 µM (active).
For `Cc1cc(=O)[nH]c(-n2nc(C)cc2NC(=O)CCc2ccccc2)n1`, the EC50 [21] was > 16.6 µM (active) and the EC50 [22] was > 49.7 µM (inactive).
